Positions of bridges follow the written chain, without caps; N, C: chain ends. Non-standard residues stand in square brackets, D forms with d. Residues, ends and D or L forms follow the SMILES beside them. Chains are numbered I, II in the order given. *: point of attachment. NOTA = O=C(O)CN1CCN(CC(=O)O)CCN(CC(=O)*)CC1
Legend:
[1] = In vivo radiometabolite analysis in plasma and urine; parameters: species or system mouse; conditions: wild-type mice
Description: Plasma samples were obtained by decapitation 15 min p.i. (n = 2). Blood was collected in EDTA tubes and centrifuged for 5 min at 3000× g. Subsequently, plasma was removed and diluted (1:2) with acetonitrile to precipitate all plasma proteins. After centrifugation (5 min at 3000× g), the supernatant was diluted (1:10) with water and filtered (0.22 µm) before injection on radioHPLC. Urine samples were collected 75 min p.i. (n = 3) by gently pressing on the bladder. The collected urine was filtered (0.22 µm) before injection on radioHPLC. Due to low radioactivity concentration in the plasma samples, 30 fractions of 30 s per plasma sample were collected. Radioactivity in the fractions was determined in an automated gamma counter.

[2] = Ex vivo biodistribution in wild-type mice; conditions: mouse, total radioactivity, 75 min p.i., ex vivo gamma counting, mean ± SD
Description: The in vivo pharmacokinetics of the selected radioligands were first evaluated in wild-type mice by performing a whole-body biodistribution study. […] Blood and major organs were collected in tared tubes and weighed. Quantification of radioactivity in blood, organs, and other body parts was performed using an automated gamma counter equipped with a 3-inch NaI(Tl) well crystal coupled to a multichannel analyzer, mounted in a sample changer (2480 Wizard^2, Perkin Elmer, Waltham, MA, USA). Counts were corrected for background radiation, physical decay and counter dead time. Results are presented as standardized uptake values (SUV; tissue activity concentration (MBq/g)/[injected dose (MBq)/body weight (g)]).

[3] = Ex vivo biodistribution in U87.hCXCR4 tumor-bearing mice; parameters: species or system mouse; conditions: female, SCID (CB17.Cg-Prkdc<scid>Lyst<bg-J>/Crl), mouse, iv, total radioactivity, 75 min p.i., mean ± SD

## CC(C)C[C@@H](N)C(=O)NCC(=O)N[C@H](C)C(=O)N[C@H](CO)C(=O)N[C@H](Cc1c[nH]c2ccccc12)C(=O)N[C@H](Cc1c[nH]cn1)C(=O)N[C@H](CCCNC(=N)N)C(=O)N1CCC[C@@H]1C(=O)N[C@H](CC(=O)O)C(=O)N[C@H](CCCCNC(=O)CN1CCN(CC(=O)O)CCN(CC(=O)O)CC1)C(=O)NCCCC[C@@H](NC(=O)[C@H]1CCCN1C(=O)[C@@H](CC(C)C)NC(=O)[C@H]1CCCN1C(=O)[C@@H](CCCNC(=N)N)NC(=O)[C@@H](CCCCN)NC(=O)[C@@H](CCC(N)=O)NC(=O)[C@@H](Cc1ccc(O)cc1)NC(=O)CNC(=O)[C@@H](CC(C)C)NC(=O)[C@@H](CS)NC(=O)[C@@H](CS)NC(=O)[C@@H](CCCCN)NC(=O)[C@@H](CC(=O)O)NC(=O)[C@H]1CCCN1C(=O)[C@@H](CCCNC(=N)N)NC(=O)[C@@H](Cc1c[nH]cn1)NC(=O)[C@@H](Cc1c[nH]c2ccccc12)NC(=O)[C@@H](CO)NC(=O)[C@@H](C)NC(=O)CNC(=O)[C@H](N)CC(C)C)C(=O)O [[^18F]AlF-NOTA-DV1-k-(DV3)] (I: H-[dL]G[dA][dS][dW][dH][dR][dP][dD][dK][dC][dC][dL]G[dY][dQ][dK][dR][dP][dL][dP][dK]-OH / II: H-[dL]G[dA][dS][dW][dH][dR][dP][dD][dK](NOTA); amide I:22-II:C)
[1]; i.v., plasma 15 min p.i., radioHPLC fractions, gamma counter, n = 2
  parent (intact) radioligand in plasma: 86 ± 0.1%
[1]; i.v., urine 75 min p.i., radioHPLC, n = 3
  parent (intact) radioligand in urine: 37 ± 2%
[1]; plasma 15 min p.i., n = 2
  polar metabolites in plasma: 14 ± 0.1%
[1]; urine 75 min p.i., n = 3
  polar metabolites in urine: 63 ± 2%
[2]; blood, + AMD3100 5 mg/kg, n: PentixaFor 1, 18F 2, 68Ga 4, 177Lu 3, read-out: blood uptake
  SUV at 1.25 h: 0.5 SUV
[2]; blood, tracer alone, n: PentixaFor 3, 18F 5, 68Ga 4, 177Lu 3, read-out: blood uptake
  SUV at 1.25 h: 0.2 ± 0.1 SUV
[2]; bone (femur harboring bone marrow), tracer alone, n: PentixaFor 3, 18F 5, 68Ga 4, 177Lu 3, read-out: bone uptake (femur harboring bone marrow)
  SUV at 1.25 h: 0.7 ± 0.4 SUV
[2]; brain, + AMD3100 5 mg/kg, n: PentixaFor 1, 18F 2, 68Ga 4, 177Lu 3, read-out: brain uptake
  SUV at 1.25 h: 0.02 SUV
[2]; brain, tracer alone, n: PentixaFor 3, 18F 5, 68Ga 4, 177Lu 3, read-out: brain uptake
  SUV at 1.25 h: 0.01 ± 0.003 SUV
[2]; heart, + AMD3100 5 mg/kg, n: PentixaFor 1, 18F 2, 68Ga 4, 177Lu 3, read-out: heart uptake
  SUV at 1.25 h: 0.2 SUV
[2]; heart, tracer alone, n: PentixaFor 3, 18F 5, 68Ga 4, 177Lu 3, read-out: heart uptake
  SUV at 1.25 h: 0.2 ± 0.1 SUV
[2]; kidneys, + AMD3100 5 mg/kg, n: PentixaFor 1, 18F 2, 68Ga 4, 177Lu 3, read-out: kidneys uptake
  SUV at 1.25 h: 35.4 SUV
[2]; kidneys, tracer alone, n: PentixaFor 3, 18F 5, 68Ga 4, 177Lu 3, read-out: kidneys uptake
  SUV at 1.25 h: 23.2 ± 3.9 SUV
[2]; liver, + AMD3100 5 mg/kg, n: PentixaFor 1, 18F 2, 68Ga 4, 177Lu 3, read-out: liver uptake
  SUV at 1.25 h: 1 SUV
[2]; liver, tracer alone, n: PentixaFor 3, 18F 5, 68Ga 4, 177Lu 3, read-out: liver uptake
  SUV at 1.25 h: 7.4 ± 0.5 SUV
[2]; lungs, + AMD3100 5 mg/kg, n: PentixaFor 1, 18F 2, 68Ga 4, 177Lu 3, read-out: lungs uptake
  SUV at 1.25 h: 0.8 SUV
[2]; lungs, tracer alone, n: PentixaFor 3, 18F 5, 68Ga 4, 177Lu 3, read-out: lungs uptake
  SUV at 1.25 h: 0.8 ± 0.2 SUV
[2]; pancreas, + AMD3100 5 mg/kg, n: PentixaFor 1, 18F 2, 68Ga 4, 177Lu 3, read-out: pancreas uptake
  SUV at 1.25 h: 0.1 SUV
[2]; pancreas, tracer alone, n: PentixaFor 3, 18F 5, 68Ga 4, 177Lu 3, read-out: pancreas uptake
  SUV at 1.25 h: 0.1 ± 0.02 SUV
[2]; spleen, + AMD3100 5 mg/kg, n: PentixaFor 1, 18F 2, 68Ga 4, 177Lu 3, read-out: spleen uptake
  SUV at 1.25 h: 0.9 SUV
[2]; spleen, tracer alone, n: PentixaFor 3, 18F 5, 68Ga 4, 177Lu 3, read-out: spleen uptake
  SUV at 1.25 h: 3.2 ± 0.8 SUV
[3]; blood, co-injected DV1-k-(DV3) 7 nmol, n = 3, read-out: blood uptake
  SUV at 1.25 h: 0.4 ± 0.2 SUV
[3]; blood, co-injected DV1-k-(DV3) 14 nmol, n = 4, read-out: blood uptake
  SUV at 1.25 h: 0.5 ± 0.3 SUV
[3]; blood, tracer alone (0 nmol), n = 4, read-out: blood uptake
  SUV at 1.25 h: 0.1 ± 0.1 SUV
[3]; blood, with AMD3100 5 mg/kg (157 nmol), co-injected, co-injected AMD3100 5 mg/kg (157 nmol), n = 4, read-out: blood uptake
  SUV at 1.25 h: 0.3 ± 0.2 SUV
[3]; bone, co-injected AMD3100 5 mg/kg (157 nmol), n = 4, read-out: bone uptake
  SUV at 1.25 h: 0.1 ± 0.04 SUV
[3]; bone, co-injected DV1-k-(DV3) 7 nmol, n = 3, read-out: bone uptake
  SUV at 1.25 h: 0.2 ± 0.04 SUV
[3]; bone, co-injected DV1-k-(DV3) 14 nmol, n = 4, read-out: bone uptake
  SUV at 1.25 h: 0.3 ± 0.1 SUV
[3]; bone, co-injected DV1-k-(DV3) 24 nmol, n = 4, read-out: bone uptake
  SUV at 1.25 h: 0.2 ± 0.04 SUV
[3]; bone, tracer alone (0 nmol), n = 4, read-out: bone uptake
  SUV at 1.25 h: 0.4 ± 0.1 SUV
[3]; brain, co-injected AMD3100 5 mg/kg (157 nmol), n = 4, read-out: brain uptake
  SUV at 1.25 h: 0.01 ± 0.004 SUV
[3]; brain, co-injected DV1-k-(DV3) 7 nmol, n = 3, read-out: brain uptake
  SUV at 1.25 h: 0.02 ± 0.01 SUV
[3]; brain, co-injected DV1-k-(DV3) 14 nmol, n = 4, read-out: brain uptake
  SUV at 1.25 h: 0.03 ± 0.01 SUV
[3]; brain, co-injected DV1-k-(DV3) 24 nmol, n = 4, read-out: brain uptake
  SUV at 1.25 h: 0.02 ± 0.01 SUV
[3]; brain, tracer alone (0 nmol), n = 4, read-out: brain uptake
  SUV at 1.25 h: 0.01 ± 0.001 SUV
[3]; heart, co-injected AMD3100 5 mg/kg (157 nmol), n = 4, read-out: heart uptake
  SUV at 1.25 h: 0.1 ± 0.1 SUV
[3]; heart, co-injected DV1-k-(DV3) 7 nmol, n = 3, read-out: heart uptake
  SUV at 1.25 h: 0.2 ± 0.1 SUV
[3]; heart, co-injected DV1-k-(DV3) 14 nmol, n = 4, read-out: heart uptake
  SUV at 1.25 h: 0.3 ± 0.1 SUV
[3]; heart, co-injected DV1-k-(DV3) 24 nmol, n = 4, read-out: heart uptake
  SUV at 1.25 h: 0.2 ± 0.1 SUV
[3]; heart, tracer alone (0 nmol), n = 4, read-out: heart uptake
  SUV at 1.25 h: 0.1 ± 0.04 SUV
[3]; kidneys, co-injected AMD3100 5 mg/kg (157 nmol), n = 4, read-out: kidneys uptake
  SUV at 1.25 h: 47.5 ± 3.1 SUV
[3]; kidneys, co-injected DV1-k-(DV3) 7 nmol, n = 3, read-out: kidneys uptake
  SUV at 1.25 h: 39.2 ± 7.6 SUV
[3]; kidneys, co-injected DV1-k-(DV3) 14 nmol, n = 4, read-out: kidneys uptake
  SUV at 1.25 h: 33.6 ± 12.4 SUV
[3]; kidneys, co-injected DV1-k-(DV3) 24 nmol, n = 4, read-out: kidneys uptake
  SUV at 1.25 h: 36.1 ± 5.9 SUV
[3]; kidneys, tracer alone (0 nmol), n = 4, read-out: kidneys uptake
  SUV at 1.25 h: 26.5 ± 6 SUV
[3]; liver, co-injected AMD3100 5 mg/kg (157 nmol), n = 4, read-out: liver uptake
  SUV at 1.25 h: 0.9 ± 0.3 SUV
[3]; liver, tracer alone (0 nmol), n = 4, read-out: liver uptake
  SUV at 1.25 h: 8.2 ± 1 SUV
[3]; liver, with unlabelled DV1-k-(DV3) 7 nmol, co-injected, co-injected DV1-k-(DV3) 7 nmol, n = 3, read-out: liver uptake
  SUV at 1.25 h: 1.2 ± 0.1 SUV
[3]; liver, with unlabelled DV1-k-(DV3) 14 nmol, co-injected, co-injected DV1-k-(DV3) 14 nmol, n = 4, read-out: liver uptake
  SUV at 1.25 h: 1.2 ± 0.4 SUV
[3]; liver, with unlabelled DV1-k-(DV3) 24 nmol, co-injected, co-injected DV1-k-(DV3) 24 nmol, n = 4, read-out: liver uptake
  SUV at 1.25 h: 0.7 ± 0.1 SUV
[3]; lungs, co-injected AMD3100 5 mg/kg (157 nmol), n = 4, read-out: lungs uptake
  SUV at 1.25 h: 0.5 ± 0.1 SUV
[3]; lungs, co-injected DV1-k-(DV3) 7 nmol, n = 3, read-out: lungs uptake
  SUV at 1.25 h: 0.7 ± 0.2 SUV
[3]; lungs, co-injected DV1-k-(DV3) 14 nmol, n = 4, read-out: lungs uptake
  SUV at 1.25 h: 0.9 ± 0.3 SUV
[3]; lungs, co-injected DV1-k-(DV3) 24 nmol, n = 4, read-out: lungs uptake
  SUV at 1.25 h: 0.6 ± 0.2 SUV
[3]; lungs, tracer alone (0 nmol), n = 4, read-out: lungs uptake
  SUV at 1.25 h: 0.6 ± 0.2 SUV
[3]; muscle, co-injected DV1-k-(DV3) 7 nmol, n = 3, read-out: muscle uptake
  SUV at 1.25 h: 0.2 ± 0.1 SUV
[3]; muscle, co-injected DV1-k-(DV3) 14 nmol, n = 4, read-out: muscle uptake
  SUV at 1.25 h: 0.2 ± 0.1 SUV
[3]; muscle, co-injected DV1-k-(DV3) 24 nmol, n = 4, read-out: muscle uptake
  SUV at 1.25 h: 0.2 ± 0.1 SUV

From publication PMC8537445, “D-Peptide-Based Probe for CXCR4-Targeted Molecular Imaging and Radionuclide Therapy” (Pharmaceutics, 2021)
